Reference: patent US9376429B2, “Sodium channel blockers, preparation method thereof and use thereof” (Daewoong Pharmaceutical Co., Ltd., priority 2012, dated 2016)

Target: T1, sodium ion channel (Nav1.7) (Homo sapiens, UniProt Q15858)
T1 construct: host or cells: HEK293
Assay: Blocking effect against sodium ion channel (Nav1.7), IonFlux16 auto patch clamp, hNav1.7 HEK293 cells
Type: cell-based
Conditions: peak current after 50 seconds treatment, eight concentrations
Summary of the method: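 HEK293 cells stably expressing human Nav1.7 were recorded by IonFlux16 automated patch clamp in extracellular solution (pH 7.45, final DMSO ≤0.3%). Peak current was measured after 50 s exposure to each of eight compound concentrations and expressed as percent inhibition relative to pre-compound current.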

T1 sequence (Q15858 whole entry): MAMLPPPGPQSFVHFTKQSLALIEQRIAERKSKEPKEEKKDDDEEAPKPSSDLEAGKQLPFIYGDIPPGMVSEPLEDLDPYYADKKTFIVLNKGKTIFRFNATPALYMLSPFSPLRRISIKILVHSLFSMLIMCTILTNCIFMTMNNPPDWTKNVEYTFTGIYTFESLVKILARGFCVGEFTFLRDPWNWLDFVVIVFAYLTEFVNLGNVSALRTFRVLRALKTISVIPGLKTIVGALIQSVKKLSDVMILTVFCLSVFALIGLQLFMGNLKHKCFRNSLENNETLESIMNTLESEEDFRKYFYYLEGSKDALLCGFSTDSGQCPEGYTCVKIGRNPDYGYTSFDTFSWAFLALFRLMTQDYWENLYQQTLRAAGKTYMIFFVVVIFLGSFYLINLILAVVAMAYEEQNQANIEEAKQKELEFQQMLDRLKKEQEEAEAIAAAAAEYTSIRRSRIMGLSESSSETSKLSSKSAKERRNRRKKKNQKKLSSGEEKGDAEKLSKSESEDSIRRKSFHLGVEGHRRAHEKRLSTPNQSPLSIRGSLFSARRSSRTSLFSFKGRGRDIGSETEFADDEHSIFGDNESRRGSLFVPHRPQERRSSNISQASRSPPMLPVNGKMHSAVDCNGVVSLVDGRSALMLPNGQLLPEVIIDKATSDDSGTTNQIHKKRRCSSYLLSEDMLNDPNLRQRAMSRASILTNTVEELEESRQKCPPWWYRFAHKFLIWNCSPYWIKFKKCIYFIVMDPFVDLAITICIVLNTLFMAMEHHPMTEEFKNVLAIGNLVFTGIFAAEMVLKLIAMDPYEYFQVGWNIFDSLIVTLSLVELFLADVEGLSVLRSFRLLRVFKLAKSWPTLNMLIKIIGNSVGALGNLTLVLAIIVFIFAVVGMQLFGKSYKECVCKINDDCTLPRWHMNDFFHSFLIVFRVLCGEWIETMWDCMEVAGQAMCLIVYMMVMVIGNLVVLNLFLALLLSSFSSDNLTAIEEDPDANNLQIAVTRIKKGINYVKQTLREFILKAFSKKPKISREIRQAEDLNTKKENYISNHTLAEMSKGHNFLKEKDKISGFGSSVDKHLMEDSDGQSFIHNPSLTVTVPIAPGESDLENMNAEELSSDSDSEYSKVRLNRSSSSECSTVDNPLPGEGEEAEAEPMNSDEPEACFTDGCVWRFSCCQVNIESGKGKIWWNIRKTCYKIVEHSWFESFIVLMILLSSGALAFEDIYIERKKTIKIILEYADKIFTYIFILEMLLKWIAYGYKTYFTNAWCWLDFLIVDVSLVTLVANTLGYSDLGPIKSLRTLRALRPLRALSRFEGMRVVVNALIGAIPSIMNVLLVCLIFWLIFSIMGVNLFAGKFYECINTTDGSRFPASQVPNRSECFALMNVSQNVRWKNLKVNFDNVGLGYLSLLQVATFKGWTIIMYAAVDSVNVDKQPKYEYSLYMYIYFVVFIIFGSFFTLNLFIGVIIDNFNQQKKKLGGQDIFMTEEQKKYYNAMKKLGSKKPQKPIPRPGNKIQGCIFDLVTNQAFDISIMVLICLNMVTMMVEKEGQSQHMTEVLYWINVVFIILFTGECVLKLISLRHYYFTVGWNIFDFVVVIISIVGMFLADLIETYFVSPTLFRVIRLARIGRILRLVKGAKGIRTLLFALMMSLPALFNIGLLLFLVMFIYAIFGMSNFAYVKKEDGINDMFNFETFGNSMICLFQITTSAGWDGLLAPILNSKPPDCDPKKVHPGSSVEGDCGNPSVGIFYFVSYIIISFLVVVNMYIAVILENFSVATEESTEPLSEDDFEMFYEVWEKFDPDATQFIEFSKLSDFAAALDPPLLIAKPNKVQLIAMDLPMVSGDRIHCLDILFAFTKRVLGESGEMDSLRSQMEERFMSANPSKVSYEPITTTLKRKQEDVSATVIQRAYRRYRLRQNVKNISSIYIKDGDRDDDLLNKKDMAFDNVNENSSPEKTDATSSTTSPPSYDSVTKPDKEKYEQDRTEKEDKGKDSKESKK

In the case of `Cn1cc(-c2cc(-c3ccc(F)nc3)ncc2Oc2cc(F)c(S(=O)(=O)Nc3cscn3)cc2Cl)cn1` [Example 70, 5-chloro-2-fluoro-4-((6′-fluoro-4-(1-methyl-1H-pyrazol-4-yl)-[2,3′-bipyridin]-5-yl)oxy)-N-(thiazol-4-yl)benzenesulfonamide 2,2,2-trifluoroacetate], the IC50 is reported as over 100 nM.
In the case of `Cn1nccc1-c1cc(-c2cccc(F)c2)ncc1Oc1cc(F)c(S(=O)(=O)Nc2cscn2)cc1Cl` [Example 71, 5-chloro-2-fluoro-4-((6-(3-fluorophenyl)-4-(1-methyl-1H-pyrazol-5-yl)pyridin-3-yl)oxy)-N-(thiazol-4-yl)benzenesulfonamide], the IC50 is reported as over 100 nM.
Work on `O=S(=O)(Nc1cscn1)c1cc(Cl)c(Oc2cnc(-c3cccc(F)c3)cc2-c2ccnc(N3CCNCC3)n2)cc1F` [Example 72, 5-chloro-2-fluoro-4-((6-(3-fluorophenyl)-4-(2-(piperazin-1-yl)pyrimidin-4-yl)pyridin-3-yl)oxy)-N-(thiazol-4-yl)benzenesulfonamide] yielded an IC50 of over 100 nM.
For `O=S(=O)(Nc1nccs1)c1cc(Cl)c(Oc2cnc(-c3cccc(F)c3)cc2-c2cccnc2)cc1F` [Example 73, 5-chloro-2-fluoro-4-((6′-(3-fluorophenyl)-[3,4′-bipyridin]-3′-yl)oxy)-N-(thiazol-2-yl)benzenesulfonamide], the IC50 was over 100 nM.
In the case of `O=S(=O)(Nc1cscn1)c1cc(Cl)c(Oc2cnc(-c3cccc(F)c3)cc2-c2cccnc2)cc1F` [Example 74, 5-chloro-2-fluoro-4-((6′-(3-fluorophenyl)-[3,4′-bipyridin]-3′-yl)oxy)-N-(thiazol-4-yl)benzenesulfonamide], the IC50 is reported as over 100 nM.
`O=S(=O)(Nc1cscn1)c1cc(Cl)c(Oc2cnc(-c3ccnc(F)c3)cc2-c2cccnc2)cc1F` [Example 75, 5-chloro-2-fluoro-4-((2″-fluoro-[3,4′:2′,4″-terpyridin]-5′-yl)oxy)-N-(thiazol-4-yl)benzenesulfonamide] gave an IC50 of over 100 nM.
In the case of `O=S(=O)(Nc1cscn1)c1cc(Cl)c(Oc2cnc(-c3cccc(F)c3)cc2-c2cncnc2)cc1F` [Example 76, 5-chloro-2-fluoro-4-((6-(3-fluorophenyl)-4-(pyrimidin-5-yl)pyridin-3-yl)oxy)-N-(thiazol-4-yl)benzenesulfonamide], the IC50 is reported as over 100 nM.
For `O=S(=O)(Nc1cscn1)c1cc(Cl)c(Oc2cnc(-c3ccnc(F)c3)cc2-c2cncnc2)cc1F` [Example 77, 5-chloro-2-fluoro-4-((2′-fluoro-4-(pyrimidin-5-yl)-[2,4′-bipyridin]-5-yl)oxy)-N-(thiazol-4-yl)benzenesulfonamide], the IC50 was over 100 nM.
Work on `O=S(=O)(Nc1cscn1)c1cc(Cl)c(Oc2cnc(-c3cccc(F)c3)cc2-c2cn[nH]c2)cc1F` [Example 78, 5-chloro-2-fluoro-4-((6-(3-fluorophenyl)-4-(1H-pyrazol-4-yl)pyridin-3-yl)oxy)-N-(thiazol-4-yl)benzenesulfonamide] yielded an IC50 of over 100 nM.
Work on `O=S(=O)(Nc1cscn1)c1cc(Cl)c(Oc2cnc(-c3cccc(F)c3)cc2-c2ccnc(F)c2)cc1F` [Example 79, 5-chloro-2-fluoro-4-((2′-fluoro-6-(3-fluorophenyl)-[4,4′-bipyridin]-3-yl)oxy)-N-(thiazol-4-yl)benzenesulfonamide] yielded an IC50 of over 100 nM.
In the case of `O=S(=O)(Nc1cscn1)c1cc(Cl)c(Oc2cnc(-c3ccc(F)c(F)c3)cc2-c2ccnc(F)c2)cc1F` [Example 80, 5-chloro-4-((6-(3,4-difluorophenyl)-2′-fluoro-[4,4′-bipyridin]-3-yl)oxy)-2-fluoro-N-(thiazol-4-yl)benzenesulfonamide], the IC50 is reported as over 100 nM.
`O=S(=O)(Nc1cscn1)c1cc(Cl)c(Oc2cnc(-c3cc(Cl)ccc3F)cc2-c2cccnc2)cc1F` [Example 81, 5-chloro-4-((6′-(5-chloro-2-fluorophenyl)-[3,4′-bipyridin]-3′-yl)oxy)-2-fluoro-N-(thiazol-4-yl)benzenesulfonamide] was tested, and the IC50 was over 100 nM.
`O=S(=O)(Nc1cscn1)c1cc(Cl)c(Oc2cnc(-c3ccc(F)c(F)c3)cc2-c2cccnc2)cc1F` [Example 82, 5-chloro-4-((6′-(3,4-difluorophenyl)-[3,4′-bipyridin]-3′-yl)oxy)-2-fluoro-N-(thiazol-4-yl)benzenesulfonamide] gave an IC50 of over 100 nM.
Molecule `N#Cc1cc(S(=O)(=O)Nc2cscn2)ccc1Oc1cnc(-c2cccc(F)c2)cc1-c1cn[nH]c1` [Example 83, 3-cyano-4-((6-(3-fluorophenyl)-4-(1H-pyrazol-4-yl)pyridin-3-yl)oxy)-N-(thiazol-4-yl)benzenesulfonamide] has an IC50 of over 100 nM.
`N#Cc1cc(S(=O)(=O)Nc2cscn2)ccc1Oc1cnc(-c2cccc(F)c2)cc1-c1cccnc1` [Example 84, 3-cyano-4-((6′-(3-fluorophenyl)-[3,4′-bipyridin]-3′-yl)oxy)-N-(thiazol-4-yl)benzenesulfonamide] gave an IC50 of over 100 nM.
With `N#Cc1cc(S(=O)(=O)Nc2cscn2)ccc1Oc1cnc(-c2ccc(F)c(F)c2)cc1-c1cccnc1` [Example 85, 3-cyano-4-((6′-(3,4-difluorophenyl)-[3,4′-bipyridin]-3′-yl)oxy)-N-(thiazol-4-yl)benzenesulfonamide] the IC50 was over 100 nM.
With `N#Cc1cc(S(=O)(=O)Nc2cscn2)ccc1Oc1cnc(-c2ccc(C(F)(F)F)c(F)c2)cc1-c1cccnc1` [Example 86, 3-cyano-4-((6′-(3-fluoro-4-(trifluoromethyl)phenyl)-[3,4′-bipyridin]-3′-yl)oxy)-N-(thiazol-4-yl)benzenesulfonamide] the IC50 was over 100 nM.
For `O=S(=O)(Nc1cscn1)c1cc(F)c(Oc2cnc(-c3cccc(F)c3)cc2-c2cccnc2)cc1F` [Example 87, 2,5-difluoro-4-((6′-(3-fluorophenyl)-[3,4′-bipyridin]-3′-yl)oxy)-N-(thiazol-4-yl)benzenesulfonamide], the IC50 was over 100 nM.
`O=S(=O)(Nc1cscn1)c1cc(F)c(Oc2cnc(-c3ccc(F)c(F)c3)cc2-c2cccnc2)cc1F` [Example 88, 4-((6′-(3,4-difluorophenyl)-[3,4′-bipyridin]-3′-yl)oxy)-2,5-difluoro-N-(thiazol-4-yl)benzenesulfonamide] showed an IC50 of over 100 nM.
`O=S(=O)(Nc1cscn1)c1cc(F)c(Oc2cnc(-c3ccc(C(F)(F)F)c(F)c3)cc2-c2cccnc2)cc1F` [Example 89, 2,5-difluoro-4-((6′-(3-fluoro-4-(trifluoromethyl)phenyl)-[3,4′-bipyridin]-3′-yl)oxy)-N-(thiazol-4-yl)benzenesulfonamide] was tested, and the IC50 was over 100 nM.
Molecule `N#Cc1cc(S(=O)(=O)Nc2cscn2)ccc1Oc1cnc(-c2ccc(F)cc2)cc1-c1cn[nH]c1` [Example 90, 3-cyano-4-((6-(4-fluorophenyl)-4-(1H-pyrazol-4-yl)pyridin-3-yl)oxy)-N-(thiazol-4-yl)benzenesulfonamide] has an IC50 of over 100 nM.
Molecule `N#Cc1cc(S(=O)(=O)Nc2cscn2)ccc1Oc1cnc(-c2ccc(F)c(F)c2)cc1-c1cn[nH]c1` [Example 91, 3-cyano-4-((6-(3,4-difluorophenyl)-4-(1H-pyrazol-4-yl)pyridin-3-yl)oxy)-N-(thiazol-4-yl)benzenesulfonamide] has an IC50 of over 100 nM.
`N#Cc1cc(S(=O)(=O)Nc2cscn2)ccc1Oc1cnc(-c2cccc(F)c2)cc1-c1cncnc1` [Example 92, 3-cyano-4-((6-(3-fluorophenyl)-4-(pyrimidin-5-yl)pyridin-3-yl)oxy)-N-(thiazol-4-yl)benzenesulfonamide] was tested, and the IC50 was over 100 nM.
Molecule `N#Cc1cc(S(=O)(=O)Nc2cscn2)ccc1Oc1cnc(-c2ccc(F)c(F)c2)cc1-c1cncnc1` [Example 93, 3-cyano-4-((6-(3,4-difluorophenyl)-4-(pyrimidin-5-yl)pyridin-3-yl)oxy)-N-(thiazol-4-yl)benzenesulfonamide] has an IC50 of over 100 nM.
`N#Cc1cc(S(=O)(=O)Nc2cscn2)ccc1Oc1cnc(-c2ccc(C(F)(F)F)c(F)c2)cc1-c1cncnc1` [Example 94, 3-cyano-4-((6-(3-fluoro-4-(trifluoromethyl)phenyl)-4-(pyrimidin-5-yl)pyridin-3-yl)oxy)-N-(thiazol-4-yl)benzenesulfonamide] showed an IC50 of over 100 nM.
`O=S(=O)(Nc1cscn1)c1cc(F)c(Oc2cnc(-c3cccc(F)c3)cc2-c2cncnc2)cc1F` [Example 95, 2,5-difluoro-4-((6-(3-fluorophenyl)-4-(pyrimidin-5-yl)pyridin-3-yl)oxy)-N-(thiazol-4-yl)benzenesulfonamide] gave an IC50 of over 100 nM.
`O=S(=O)(Nc1cscn1)c1cc(F)c(Oc2cnc(-c3ccc(F)c(F)c3)cc2-c2cncnc2)cc1F` [Example 96, 4-((6-(3,4-difluorophenyl)-4-(pyrimidin-5-yl)pyridin-3-yl)oxy)-2,5-difluoro-N-(thiazol-4-yl)benzenesulfonamide] showed an IC50 of over 100 nM.
For `O=S(=O)(Nc1cscn1)c1cc(F)c(Oc2cnc(-c3ccc(C(F)(F)F)c(F)c3)cc2-c2cncnc2)cc1F` [Example 97, 2,5-difluoro-4-((6-(3-fluoro-4-(trifluoromethyl)phenyl)-4-(pyrimidin-5-yl)pyridin-3-yl)oxy)-N-(thiazol-4-yl)benzenesulfonamide], the IC50 was over 100 nM.
Molecule `O=S(=O)(Nc1cscn1)c1cc(Cl)c(Oc2cnc(-c3ccc(F)c(F)c3)cc2-c2cn[nH]c2)cc1F` [Example 98, 5-chloro-4-((6-(3,4-difluorophenyl)-4-(1H-pyrazol-4-yl)pyridin-3-yl)oxy)-2-fluoro-N-(thiazol-4-yl)benzenesulfonamide] has an IC50 of over 100 nM.
Work on `O=S(=O)(Nc1cscn1)c1cc(Cl)c(Oc2cnc(-c3cccc(F)c3)cc2-c2cncc(N3CCCC3)c2)cc1F` [Example 99, 5-chloro-2-fluoro-4-((6′-(3-fluorophenyl)-5-(pyrrolidin-1-yl)-[3,4′-bipyridin]-3′-yl)oxy)-N-(thiazol-4-yl)benzenesulfonamide] yielded an IC50 of over 100 nM.
With `O=S(=O)(Nc1cscn1)c1cc(Cl)c(Oc2cnc(-c3cccc(F)c3)cc2-c2cn(-c3cccnc3)cn2)cc1F` [Example 100, 5-chloro-2-fluoro-4-((6-(3-fluorophenyl)-4-(1-(pyridin-3-yl)-1H-imidazol-4-yl)pyridin-3-yl)oxy)-N-(thiazol-4-yl)benzenesulfonamide] the IC50 was over 100 nM.
